The values that follow come from US9034921B2, “Diphenylmethane derivatives as SGLT2 inhibitors” (GREEN CROSS CORPORATION, priority 2011, dated 2015).

This experiment deals with human SGLT2 (Homo sapiens (Human), UniProt P31639). Description: Inhibitory effects on human SGLT2 activities (14C-AMG uptake, sodium-dependent glucose transport assay). The settings on record: CHO cells stably expressing hSGLT2, 37° C., 2 h, single determinations. Format: cell-based. From the text:
Test 1: Cloning and Cell Line Construction for Human SGLT2
Human SGLT2 (hSGLT2) gene was amplified by PCR from cDNA-Human Adult Normal Tissue Kidney (Invitrogen). The hSGLT2 sequence was cloned into pcDNA3.1(+) for mammalian expression and stably transfected into chinese hamster ovary (CHO) cells. SGLT2-expressing clones were selected based on resistance to G418 antibiotic (Geneticin) and activity in the ^14C-α-methyl-D-glucopyranoside (^14C-AMG) uptake assay.
Test 2: Inhibitory Effects on Human SGLT2 Activities
For sodium-dependent glucose transport assay, cells expressing hSGLT2 were seeded into a 96-well culture plate at a density of 5×10^4 cells/well in RPMI medium 1640 containing 10% fetal bovine serum. The cells were used 1 day after plating. They were incubated in pretreatment buffer (10 mM HEPES, 5 mM Tris, 140 mM choline chloride, 2 mM KCl, 1 mM CaCl2, and 1 mM MgCl2, pH 7.4) at 37° C. for 10 min. They were then incubated in uptake buffer (10 mM HEPES, 5 mM Tris, 140 mM NaCl, 2 mM KCl, 1 mM CaCl2, 1 mM MgCl2, and 1 mM ^14C-nonlabeled AMG pH 7.4) containing ^14C-labeled AMG (8 μM) and the inventive compound or dimethyl sulfoxide (DMSO) vehicle at 37° C. for 2 h. Cells were washed twice with washing buffer (pretreatment buffer containing 10 mM AMG at room temperature) and then the radioactivity was measured using a liquid scintillation counter. IC50 was determined by nonlinear regression analysis using GraphPad PRISM [Katsuno, K. et al. J. Pharmacol. Exp. Ther. 2007, 320, 323-330; Han, S. et al. Diabetes, 2008, 57, 1723-1729].

human SGLT2, sequence (P31639 whole entry): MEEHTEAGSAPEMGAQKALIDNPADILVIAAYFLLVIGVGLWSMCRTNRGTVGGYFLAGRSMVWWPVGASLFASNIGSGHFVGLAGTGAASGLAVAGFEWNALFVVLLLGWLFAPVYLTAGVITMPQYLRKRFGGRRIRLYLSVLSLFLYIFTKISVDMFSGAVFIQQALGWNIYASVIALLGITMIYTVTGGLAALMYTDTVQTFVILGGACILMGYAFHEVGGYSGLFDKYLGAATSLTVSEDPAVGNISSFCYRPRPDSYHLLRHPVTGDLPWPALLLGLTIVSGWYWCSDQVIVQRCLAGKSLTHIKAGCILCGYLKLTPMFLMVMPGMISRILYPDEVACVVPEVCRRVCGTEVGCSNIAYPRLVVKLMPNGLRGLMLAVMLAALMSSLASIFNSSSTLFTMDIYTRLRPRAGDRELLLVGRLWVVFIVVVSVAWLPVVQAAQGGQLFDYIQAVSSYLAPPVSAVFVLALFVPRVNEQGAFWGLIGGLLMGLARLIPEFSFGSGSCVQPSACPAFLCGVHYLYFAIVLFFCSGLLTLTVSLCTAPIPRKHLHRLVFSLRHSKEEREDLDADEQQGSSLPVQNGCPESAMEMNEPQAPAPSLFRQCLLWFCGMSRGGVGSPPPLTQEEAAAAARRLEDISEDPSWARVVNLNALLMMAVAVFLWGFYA

Compound `OC[C@H]1O[C@@H](c2ccc(Cl)c(Cc3ccc4c(c3)CCCC4)c2)[C@H](O)[C@@H](O)[C@@H]1O` [Example E060, (2S,3R,4R,5S,6R)-2-(4-Chloro-3-((5,6,7,8-tetrahydronaphthalen-2-yl)methyl)phenyl)-6-(hydroxymethyl)-tetrahydro-2H-pyran-3,4,5-triol] came in with a concentration for half-maximal inhibition (IC50) of 2.99 nM.
Consider `OC[C@H]1O[C@@H](c2ccc(Cl)c(Cc3ccc4c(c3)CCCS4)c2)[C@H](O)[C@@H](O)[C@@H]1O` [Example E061, (2S,3R,4R,5S,6R)-2-(4-Chloro-3-(thiochroman-6-ylmethyl)phenyl)-6-(hydroxymethyl)-tetrahydro-2H-pyran-3,4,5-triol], for which it took 3.35 nM to reach half-maximal inhibition (IC50).
Regarding `CC1(C)COc2cc(Cc3cc([C@@H]4O[C@H](CO)[C@@H](O)[C@H](O)[C@H]4O)ccc3Cl)ccc2O1` [Example E064, (2S,3R,4R,5S,6R)-2-(4-Chloro-3-((2,2-dimethyl-2,3-dihydrobenzo[b][1,4]dioxin-6-yl)methyl)phenyl)-6-(hydroxymethyl)-tetrahydro-2H-pyran-3,4,5-triol], the midpoint of inhibition, the IC50, lay at 5.78 nM.
The value for `CC1Cc2cc(Cc3cc([C@@H]4O[C@H](CO)[C@@H](O)[C@H](O)[C@H]4O)ccc3Cl)ccc2O1` (stereo partly drawn) [Example E065, (2S,3R,4R,5S,6R)-2-(4-Chloro-3-((2-methyl-2,3-dihydrobenzofuran-5-yl)methyl)phenyl)-6-(hydroxymethyl)-tetrahydro-2H-pyran-3,4,5-triol] was 7.62 nM; that for `OC[C@H]1O[C@@H](c2ccc(Cl)c(Cc3ccc4c(c3)SCO4)c2)[C@H](O)[C@@H](O)[C@@H]1O` [Example E066, (2S,3R,4R,5S,6R)-2-(3-(Benzo[d][1,3]oxathiol-5-ylmethyl)-4-chlorophenyl)-6-(hydroxymethyl)-tetrahydro-2H-pyran-3,4,5-triol] was 3.67 nM.
For `OC[C@H]1O[C@@H](c2ccc(Cl)c(Cc3ccc4c(c3)COCO4)c2)[C@H](O)[C@@H](O)[C@@H]1O` [Example E068, (2S,3R,4R,5S,6R)-2-(3-((4H-Benzo[d][1,3]dioxin-6-yl)methyl)-4-chlorophenyl)-6-(hydroxymethyl)-tetrahydro-2H-pyran-3,4,5-triol], half-maximal inhibition (IC50) was put at 9.47 nM.
The value for `OC[C@H]1O[C@@H](c2ccc(Cl)c(Cc3ccc4c(c3)OC=CO4)c2)[C@H](O)[C@@H](O)[C@@H]1O` [Example E069] was 0.788 nM; that for `OC[C@H]1O[C@@H](c2ccc(Cl)c(Cc3ccc4c(c3)SCCO4)c2)[C@H](O)[C@@H](O)[C@@H]1O` [Example E072, (2S,3R,4R,5S,6R)-2-(4-Chloro-3-((2,3-dihydrobenzo[b][1,4]oxathiin-6-yl)methyl)phenyl)-6-(hydroxymethyl)-tetrahydro-2H-pyran-3,4,5-triol] was 1.75 nM; that for `O=S1(=O)CCOc2ccc(Cc3cc([C@@H]4O[C@H](CO)[C@@H](O)[C@H](O)[C@H]4O)ccc3Cl)cc21` [Example E073, (2S,3R,4R,5S,6R)-2-(4-Chloro-3-((1,1-dioxo-2,3-dihydrobenzo[b][1,4]oxathiin-6-yl)methyl)phenyl)-6-(hydroxymethyl)-tetrahydro-2H-pyran-3,4,5-triol] was 78.5 nM.
With `CCc1ccc(Cc2cc([C@@H]3O[C@H](CO)[C@@H](O)[C@H](O)[C@H]3O)cc(-c3ccccc3)c2C)cc1` [Example E076], the IC50 was found to be 9.63 nM.
The value for `CCOc1ccc(Cc2cc([C@@H]3O[C@H](CO)[C@@H](O)[C@H](O)[C@H]3O)cc(-c3ccccc3)c2C)cc1` [Example E077] was 3.84 nM.
The figure for `CCOc1ccc(Cc2cc([C@@H]3O[C@H](CO)[C@@H](O)[C@H](O)[C@H]3O)cc(-c3ccc(F)cc3)c2C)cc1` [Example E078] is 93.3 nM; for `Cc1c(Cc2ccc3c(c2)OCCO3)cc([C@@H]2O[C@H](CO)[C@@H](O)[C@H](O)[C@H]2O)cc1-c1ccccc1` [Example E084, (2S,3R,4R,5S,6R)-2-(5-((2,3-Dihydrobenzo[b][1,4]dioxin-6-yl)methyl)-6-methylbiphenyl-3-yl)-6-(hydroxymethyl)-tetrahydro-2H-pyran-3,4,5-triol] it is 5.3 nM; for `Cc1c(Br)cc([C@@H]2O[C@H](CO)[C@@H](O)[C@H](O)[C@H]2O)cc1Cc1ccc2c(c1)OCCO2` [Example E085, (2S,3R,4R,5S,6R)-2-(3-Bromo-5-((2,3-dihydrobenzo[b][1,4]dioxin-6-yl)methyl)-4-methylphenyl)-6-(hydroxymethyl)-tetrahydro-2H-pyran-3,4,5-triol] it is 1.82 nM.
The figure for `CCOc1ccc(Cc2cc([C@@H]3O[C@H](CO)[C@@H](O)[C@H](O)[C@H]3O)cc(-c3ccccc3Cl)c2C)cc1` [Example E086, (2S,3R,4R,5S,6R)-2-(6′-Chloro-5-(4-ethoxybenzyl)-6-methylbiphenyl-3-yl)-6-(hydroxymethyl)-tetrahydro-2H-pyran-3,4,5-triol] is 15.4 nM; for `CCOc1ccc(Cc2cc([C@@H]3O[C@H](CO)[C@@H](O)[C@H](O)[C@H]3O)cc(-c3cccc(C#N)c3)c2C)cc1` [Example E087, 3′-(4-Ethoxybenzyl)-2′-methyl-5′-((2S,3R,4R,5S,6R)-3,4,5-trihydroxy-6-(hydroxymethyl)-tetrahydro-2H-pyran-2-yl)biphenyl-3-carbonitrile] it is 38.9 nM.
The compound `CCOc1ccc(Cc2cc([C@@H]3O[C@H](CO)[C@@H](O)[C@H](O)[C@H]3O)cc(-c3ccsc3)c2C)cc1` [Example E089, (2S,3R,4R,5S,6R)-2-(3-(4-Ethoxybenzyl)-4-methyl-5-(thiophen-3-yl)phenyl)-6-(hydroxymethyl)-tetrahydro-2H-pyran-3,4,5-triol] returned an IC50 of 2.55 nM.
The figure for `CCOc1ccc(Cc2cc([C@@H]3O[C@H](CO)[C@@H](O)[C@H](O)[C@H]3O)cc(-c3cccs3)c2C)cc1` [Example E090, (2S,3R,4R,5S,6R)-2-(3-(4-Ethoxybenzyl)-4-methyl-5-(thiophen-2-yl)phenyl)-6-(hydroxymethyl)-tetrahydro-2H-pyran-3,4,5-triol] is 3.73 nM.
In turn, `CS[C@H]1O[C@@H](c2ccc(Cl)c(Cc3ccc4c(c3)OCCO4)c2)[C@H](O)[C@@H](O)[C@@H]1O` [Example E091, (2S,3R,4R,5S,6R)-2-(4-Chloro-3-((2,3-dihydrobenzo[b][1,4]dioxin-6-yl)methyl)phenyl)-6-(methylthio)tetrahydro-2H-pyran-3,4,5-triol] displayed an IC50 of 0.629 nM.
With `CO[C@H]1O[C@@H](c2ccc(Cl)c(Cc3ccc4c(c3)OCCO4)c2)[C@H](O)[C@@H](O)[C@@H]1O` [Example E092, (2S,3R,4R,5S,6S)-2-(4-Chloro-3-((2,3-dihydrobenzo[b][1,4]dioxin-6-yl)methyl)phenyl)-6-methoxy-tetrahydro-2H-pyran-3,4,5-triol], the IC50 came to 8.65 nM.
With `COC1O[C@@H](c2ccc(Cl)c(Cc3ccc4c(c3)OCCO4)c2)[C@H](O)[C@@H](O)[C@@H]1O` (stereo partly drawn) [Example E093, (2S,3R,4R,5S)-2-(4-Chloro-3-((2,3-dihydrobenzo[b][1,4]dioxin-6-yl)methyl)phenyl)-6-methoxytetrahydro-2H-pyran-3,4,5-triol], inhibition was half-maximal at 16.8 nM (IC50).
The figure for `CO[C@@H]1O[C@@H](c2ccc(Cl)c(Cc3ccc4c(c3)OCCO4)c2)[C@H](O)[C@@H](O)[C@@H]1O` [Example E094, (2S,3R,4R,5S,6R)-2-(4-Chloro-3-((2,3-dihydrobenzo[b][1,4]dioxin-6-yl)methyl)phenyl)-6-methoxy-tetrahydro-2H-pyran-3,4,5-triol] is 53.9 nM; for `COc1cc(Cl)c(Cc2ccc3c(c2)OCCO3)cc1[C@@H]1O[C@H](SC)[C@@H](O)[C@H](O)[C@H]1O` [Example E095, (2S,3R,4R,5S,6R)-2-(4-Chloro-5-((2,3-dihydrobenzo[b][1,4]dioxin-6-yl)methyl)-2-methoxyphenyl)-6-(methylthio)-tetrahydro-2H-pyran-3,4,5-triol] it is 0.628 nM; for `COc1cc(Cl)c(Cc2ccc3c(c2)OCCO3)cc1[C@@H]1O[C@H](OC)[C@@H](O)[C@H](O)[C@H]1O` [Example E096, (2S,3R,4R,5S,6S)-2-(4-Chloro-5-((2,3-dihydrobenzo[b][1,4]dioxin-6-yl)methyl)-2-methoxyphenyl)-6-methoxy-tetrahydro-2H-pyran-3,4,5-triol] it is 18.5 nM.
The value for `COc1ccc(Cc2cc([C@@H]3O[C@H](OC)[C@@H](O)[C@H](O)[C@H]3O)c3c(c2Br)CCC3)cc1` [Example E097, (2S,3R,4R,5S,6S)-2-(7-Bromo-6-(4-methoxybenzyl)-2,3-dihydro-1H-inden-4-yl)-6-methoxy-tetrahydro-2H-pyran-3,4,5-triol] was 3.83 nM; that for `CS[C@H]1O[C@@H](c2cc(Cc3ccc4c(c3)OCCO4)c(Cl)cc2O)[C@H](O)[C@@H](O)[C@@H]1O` [Example E098, (2S,3R,4R,5S,6R)-2-(4-Chloro-5-((2,3-dihydrobenzo[b][1,4]dioxin-6-yl)methyl)-2-hydroxyphenyl)-6-(methylthio)-tetrahydro-2H-pyran-3,4,5-triol] was 0.454 nM.

Broadly, the IC50 is the concentration that inhibits the measured activity by half. A higher IC50 goes with weaker potency.
